Test results as given in the supplement of paper PMC5908809.

How the values were obtained:
[1] = test system: KAI3 (IL-2 2.5 ng/mL); test: relative IC50 (inflection point of fitted viability curve, relative to fitted max inhibition); higher = less sensitive; conditions: 72 h
Description: (§1)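 Drug sensitivity and resistance testing: 5 concentrations over a 10,000-fold range, 72 h at 37 °C, viability by CellTiter-Glo normalised to DMSO and benzethonium chloride controls. IC50 is the inflection point of a logistic fit (min fixed at 0, max fitted), so it is relative to the fitted maximal inhibition. Kept only where fitted max inhibition is at least 50%.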

[2] = test system: NK-YS (IL-2 2.5 ng/mL); test: as above; conditions: 72 h
Description: as §1

[3] = test system: NK-92 (IL-2 2.5 ng/mL); test: as above; conditions: 72 h
Description: as §1

[4] = test system: KHYG-1 (IL-2 2.5 ng/mL); test: as above; conditions: 72 h
Description: as §1

[5] = test system: SNK-6 (IL-2 2.5 ng/mL); test: as above; conditions: 72 h
Description: as §1

[6] = test system: NKL (IL-2 2.5 ng/mL); test: as above; conditions: 72 h
Description: as §1

[7] = test system: YT (IL-2 2.5 ng/mL); test: as above; conditions: 72 h
Description: as §1

[8] = test system: DERL-7 (IL-2 2.5 ng/mL); test: as above; conditions: 72 h
Description: as §1

[9] = test system: normal primary NK cells, pool 3 (3 donors) (IL-2 2.5 ng/mL); test: drug sensitivity score (DSS) (DSS units); higher = more sensitive; extreme values may be limits of the assay; conditions: 72 h
[10] = test system: KAI3 (IL-2 2.5 ng/mL); test: as above; conditions: 72 h
[11] = test system: IMC-1 (IL-2 20 ng/mL); test: as above; conditions: 72 h
[12] = test system: NK-YS (IL-2 2.5 ng/mL); test: as above; conditions: 72 h
[13] = test system: NK-92 (IL-2 2.5 ng/mL); test: as above; conditions: 72 h
[14] = test system: KHYG-1 (IL-2 2.5 ng/mL); test: as above; conditions: 72 h
[15] = test system: SNK-6 (IL-2 2.5 ng/mL); test: as above; conditions: 72 h
[16] = test system: normal primary NK cells, pool 1 (3 donors), resting (IL-2 0 ng/mL); test: as above; conditions: 72 h
[17] = test system: NKL (IL-2 2.5 ng/mL); test: as above; conditions: 72 h
[18] = test system: normal primary NK cells, pool 2 (3 donors) (IL-2 2.5 ng/mL); test: as above; conditions: 72 h
[19] = test system: YT (IL-2 2.5 ng/mL); test: as above; conditions: 72 h
[20] = test system: DERL-7 (IL-2 2.5 ng/mL); test: as above; conditions: 72 h
[21] = test system: normal primary NK cells, pool 1 (3 donors) (IL-2 2.5 ng/mL); test: as above; conditions: 72 h
[22] = test system: normal primary NK cells, pool 3 (3 donors) (IL-2 2.5 ng/mL); test: percent inhibition of viability; higher = more inhibition; conditions: 72 h
[23] = test system: KAI3 (IL-2 2.5 ng/mL); test: as above; conditions: 72 h
[24] = test system: IMC-1 (IL-2 20 ng/mL); test: as above; conditions: 72 h
[25] = test system: NK-YS (IL-2 2.5 ng/mL); test: as above; conditions: 72 h
[26] = test system: NK-92 (IL-2 2.5 ng/mL); test: as above; conditions: 72 h
[27] = test system: KHYG-1 (IL-2 2.5 ng/mL); test: as above; conditions: 72 h
[28] = test system: SNK-6 (IL-2 2.5 ng/mL); test: as above; conditions: 72 h
[29] = test system: normal primary NK cells, pool 1 (3 donors), resting (IL-2 0 ng/mL); test: as above; conditions: 72 h
[30] = test system: NKL (IL-2 2.5 ng/mL); test: as above; conditions: 72 h
[31] = test system: normal primary NK cells, pool 2 (3 donors) (IL-2 2.5 ng/mL); test: as above; conditions: 72 h
[32] = test system: YT (IL-2 2.5 ng/mL); test: as above; conditions: 72 h
[33] = test system: DERL-7 (IL-2 2.5 ng/mL); test: as above; conditions: 72 h
[34] = test system: normal primary NK cells, pool 1 (3 donors) (IL-2 2.5 ng/mL); test: as above; conditions: 72 h
[35] = test system: normal NK cells expanded with K562-aAPC; test: drug sensitivity score (DSS) (DSS units); higher = more sensitive; extreme values may be limits of the assay; conditions: 72 h; IL-2 2.5 ng/mL
Description: (§2)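 Drug sensitivity and resistance testing on K562-aAPC-expanded normal NK cells: 5 concentrations (10-fold steps over a 10,000-fold range), 72 h at 37 °C, viability by CellTiter-Glo normalised to DMSO and benzethonium chloride controls; DSS from the fitted curve.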

[36] = test system: normal NK cells expanded with K562-aAPC; test: percent inhibition of viability; higher = more inhibition; conditions: 72 h, IL-2 2.5 ng/mL
Description: as §2

CCCS(=O)(=O)Nc1ccc(F)c(C(=O)c2c[nH]c3ncc(-c4ccc(Cl)cc4)cc23)c1F [Vemurafenib]
relative IC50 [1]: 1.91 µM
relative IC50 [2]: 3.08 µM
relative IC50 [3]: 1.61 µM
relative IC50 [4]: 1.13 µM
relative IC50 [5]: 3.17 µM
relative IC50 [6]: 1.9 µM
relative IC50 [7]: 1.91 µM
relative IC50 [8]: 1.76 µM

CS(=O)(=O)c1ccc(C(=O)Nc2ccc(Cl)c(-c3ccccn3)c2)c(Cl)c1 [Vismodegib]
relative IC50 [3]: 1.4 µM

CCn1c(=O)c(-c2cc[nH]n2)cc2c(C)nc(N)nc21 [Voxtalisib]
relative IC50 [1]: 0.818 µM
relative IC50 [2]: 1.34 µM
relative IC50 [3]: 0.685 µM
relative IC50 [4]: 1.64 µM
relative IC50 [5]: 3.19 µM
relative IC50 [6]: 0.88 µM
relative IC50 [7]: 1.11 µM
relative IC50 [8]: 0.457 µM

O=C(Nc1ccc(-c2ccnc(Nc3ccc(N4CCOCC4)cc3)n2)cc1)C1CCCN1 (stereo unspecified) [XL019] (max concentration tested 10000 nM)
drug sensitivity score [9]: 6.8
drug sensitivity score [10]: 7.51
drug sensitivity score [11]: 3.31
drug sensitivity score [12]: 3.62
drug sensitivity score [13]: 1.81
drug sensitivity score [14]: 5.54
drug sensitivity score [15]: 0.74
drug sensitivity score [16]: 6.18
drug sensitivity score [17]: 9.26
drug sensitivity score [18]: 7.07
drug sensitivity score [19]: 1.85
drug sensitivity score [20]: 6.99
drug sensitivity score [21]: 5.96
percent inhibition of viability ([22]; 1 nM): -1.82%
percent inhibition of viability ([22]; 10 nM): 6.1%
percent inhibition of viability ([22]; 100 nM): -1.33%
percent inhibition of viability ([22]; 1000 nM): 13.9%
percent inhibition of viability ([22]; 10000 nM): 81.2%
percent inhibition of viability ([23]; 1 nM): -6.77%
percent inhibition of viability ([23]; 10 nM): -0.02%
percent inhibition of viability ([23]; 100 nM): 6.51%
percent inhibition of viability ([23]; 1000 nM): 18.2%
percent inhibition of viability ([23]; 10000 nM): 83.2%
percent inhibition of viability ([24]; 1 nM): -1.28%
percent inhibition of viability ([24]; 10 nM): -4.89%
percent inhibition of viability ([24]; 100 nM): 1.81%
percent inhibition of viability ([24]; 1000 nM): -0.33%
percent inhibition of viability ([24]; 10000 nM): 61.4%
percent inhibition of viability ([25]; 1 nM): -3%
percent inhibition of viability ([25]; 10 nM): -6.33%
percent inhibition of viability ([25]; 100 nM): -0.83%
percent inhibition of viability ([25]; 1000 nM): 6.03%
percent inhibition of viability ([25]; 10000 nM): 49.6%
percent inhibition of viability ([26]; 1 nM): 1.46%
percent inhibition of viability ([26]; 10 nM): -2%
percent inhibition of viability ([26]; 100 nM): -6.58%
percent inhibition of viability ([26]; 1000 nM): -8.42%
percent inhibition of viability ([26]; 10000 nM): 44.8%
percent inhibition of viability ([27]; 1 nM): -4.32%
percent inhibition of viability ([27]; 10 nM): -2.94%
percent inhibition of viability ([27]; 100 nM): 2.79%
percent inhibition of viability ([27]; 1000 nM): 6.64%
percent inhibition of viability ([27]; 10000 nM): 81.2%
percent inhibition of viability ([28]; 1 nM): -2.35%
percent inhibition of viability ([28]; 10 nM): -15.3%
percent inhibition of viability ([28]; 100 nM): 3.5%
percent inhibition of viability ([28]; 1000 nM): -9.49%
percent inhibition of viability ([28]; 10000 nM): 27.1%
percent inhibition of viability ([29]; 1 nM): 1.73%
percent inhibition of viability ([29]; 10 nM): 2.9%
percent inhibition of viability ([29]; 100 nM): -4.73%
percent inhibition of viability ([29]; 1000 nM): 19.1%
percent inhibition of viability ([29]; 10000 nM): 61.7%
percent inhibition of viability ([30]; 1 nM): -2.13%
percent inhibition of viability ([30]; 10 nM): 4.85%
percent inhibition of viability ([30]; 100 nM): 23.2%
percent inhibition of viability ([30]; 1000 nM): 31.3%
percent inhibition of viability ([30]; 10000 nM): 72.5%
percent inhibition of viability ([31]; 1 nM): -2.68%
percent inhibition of viability ([31]; 10 nM): -3.46%
percent inhibition of viability ([31]; 100 nM): -5.23%
percent inhibition of viability ([31]; 1000 nM): 19.5%
percent inhibition of viability ([31]; 10000 nM): 74.1%
percent inhibition of viability ([32]; 1 nM): 0.46%
percent inhibition of viability ([32]; 10 nM): -0.22%
percent inhibition of viability ([32]; 100 nM): 5.02%
percent inhibition of viability ([32]; 1000 nM): 2.15%
percent inhibition of viability ([32]; 10000 nM): 33.3%
percent inhibition of viability ([33]; 1 nM): 0.19%
percent inhibition of viability ([33]; 10 nM): 0.52%
percent inhibition of viability ([33]; 100 nM): 7.06%
percent inhibition of viability ([33]; 1000 nM): 25.9%
percent inhibition of viability ([33]; 10000 nM): 71.8%
percent inhibition of viability ([34]; 1 nM): -9.78%
percent inhibition of viability ([34]; 10 nM): 0.22%
percent inhibition of viability ([34]; 100 nM): -10.4%
percent inhibition of viability ([34]; 1000 nM): 9.22%
percent inhibition of viability ([34]; 10000 nM): 80%
drug sensitivity score [35]: 6.07
percent inhibition of viability ([36]; 1 nM): -3.5%
percent inhibition of viability ([36]; 10 nM): -1.96%
percent inhibition of viability ([36]; 100 nM): 2.68%
percent inhibition of viability ([36]; 1000 nM): 12.6%
percent inhibition of viability ([36]; 10000 nM): 72%
